# Measurements taken from patent US10576052B2, “Composition preventing bacterial inflammation in monogastric animals” (PERSTORP AB, priority 2015, dated 2020).
# Key:
# [1] = system: GLP-2 positive cells in the small intestine (jejunum and ileum); assay: Quantification of GLP-2 positive cells in villi and crypts of jejunum and ileum of broiler chickens fed supplemented feed; format: in vivo, Ross broiler chickens; details: 5.6 g/kg feed from day of hatch, sampled at age of ten days
# Description: […] one-day-old Ross broiler chickens were obtained from a local hatchery. The animals were divided at random in two equal groups: one experimental groups, and one control group. The groups were housed on wood shavings in separate containers of 0.96 m^2. Commercial feed and drinking water was provided ad libitum, From the day of hatch, the experimental group received feed supplemented with glyceryl monovalerate (MV; Perstorp, 5.6 g/kg feed), according to the suppliers recommendations (in-feed supplementation). The control group, received unsupplemented feed. At the age of ten days, the animals were killed by injecting an intravenous overdose of pentobarbital and sampling was performed. Samples (1 cm in length) of jejunum and ileumn were submerged in 4% phosphate buffered (wt/vol) formaldehyde within 15 minutes after euthanasia. […] For each animal, the area of 10 randomly chosen villi and 30 randomly chosen crypts was measured for jejunum and ileum using LAS V3.8 software (Leica Microsystems GmbH, Wetzlar, Germany). In total 80 areas per bird were analysed. For every defined area, the number of cells was counted at magnification ×400. Only cells with a detectable nucleus were counted. The average number of cells per area villus or crypt (cells/mm^2) was calculated for each bird. […]
# HilA expression = assay: Invasive gene expression (HilA expression) in Salmonella; format: cell-based
# Salmonella = assay: In vitro Salmonella growth inhibition; format: cell-based
smiles,measurement,setting,value
CCCCC(=O)OCC(O)CO (stereo not shown) [glyceryl monovalerate],"average number of GLP-2 positive cells in the villi of jejunum and ileum, experimental group vs control group","[1]; P≤0.001, FIG. 1",statistically higher
same,"average numbers of GLP2-positive cells in the crypts of jejunum and ileum, experimental group vs control group","[1]; P≤0.05, FIG. 2",statistically higher
same,invasive gene expression (HilA expression) in Salmonella,HilA expression,down-regulated
same,inhibition of Salmonella growth,Salmonella,effective inhibitor
